Measurements: ChEMBL document CHEMBL4673352, “Discovery of AZD4573, a Potent and Selective Inhibitor of CDK9 That Enables Short Duration of Target Engagement for the Treatment of Hematological Malignancies” (J Med Chem, 2020)

Columns and labels:
[1] = target: Glycogen synthase kinase-3 alpha (Homo sapiens, UniProt P49840); assay: Inhibition of kinase tracer 236 binding to N-terminal GST-tagged human full length GSK3alpha expressed in baculovirus expression system by Lanthascreen Eu kinase binding assay; details: dose 0.1 µM, time 60.0 min
Glycogen synthase kinase-3 alpha, sequence (P49840 2-483 limits assumed): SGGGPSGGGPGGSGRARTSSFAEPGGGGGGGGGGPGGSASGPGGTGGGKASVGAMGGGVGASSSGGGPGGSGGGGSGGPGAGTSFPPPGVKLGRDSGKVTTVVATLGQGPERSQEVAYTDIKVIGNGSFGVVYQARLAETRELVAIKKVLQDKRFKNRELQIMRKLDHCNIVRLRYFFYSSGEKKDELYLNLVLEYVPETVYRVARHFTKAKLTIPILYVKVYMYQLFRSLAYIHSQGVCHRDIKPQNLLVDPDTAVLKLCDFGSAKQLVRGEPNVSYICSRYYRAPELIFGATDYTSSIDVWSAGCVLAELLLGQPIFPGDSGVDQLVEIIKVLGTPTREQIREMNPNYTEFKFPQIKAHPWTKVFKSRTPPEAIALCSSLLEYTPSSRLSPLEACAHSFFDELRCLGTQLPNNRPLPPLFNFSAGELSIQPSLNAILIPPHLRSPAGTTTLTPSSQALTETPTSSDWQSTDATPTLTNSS

[2] = target: Dual specificity tyrosine-phosphorylation-regulated kinase 1A (Homo sapiens) (UniProt Q13627); assay: Inhibition of human recombinant full length GST-tagged DYRK1A expressed in baculovirus infected cells at 0.1 uM incubated for 60 mins by TR-FRET based LanthaScreen Eu kinase binding assay relative to control
[3] = tested on: MV4-11; assay: Antitumor activity against human MV4-11 cells xenografted in ip dosed CB17 SCID mouse assessed as cell death administered twice daily at 2 hrs dose interval with 2 days on and 5 days off dosing schedule; type: functional, organism-based
[4] = Volume of distribution at steady state in cynomolgus monkey at 0.46 umol/kg, iv administered over 0.25 hrs formulated as solution in DMA/PEG400/Tween80; type: ADME, organism-based, Macaca fascicularis; details: in vivo, dose 0.46 µmol/kg, read-out: Vdss
[5] = target: Mitogen-activated protein kinase kinase kinase 9 (Homo sapiens) (UniProt P80192); assay: Inhibition of human recombinant MAP3K9 using casein as substrate at 1 uM incubated for 40 mins in presence of [gamma32P]-ATP by scintillation counting method relative to control
Mitogen-activated protein kinase kinase kinase 9 (Homo sapiens), sequence (P80192 whole entry, looked up): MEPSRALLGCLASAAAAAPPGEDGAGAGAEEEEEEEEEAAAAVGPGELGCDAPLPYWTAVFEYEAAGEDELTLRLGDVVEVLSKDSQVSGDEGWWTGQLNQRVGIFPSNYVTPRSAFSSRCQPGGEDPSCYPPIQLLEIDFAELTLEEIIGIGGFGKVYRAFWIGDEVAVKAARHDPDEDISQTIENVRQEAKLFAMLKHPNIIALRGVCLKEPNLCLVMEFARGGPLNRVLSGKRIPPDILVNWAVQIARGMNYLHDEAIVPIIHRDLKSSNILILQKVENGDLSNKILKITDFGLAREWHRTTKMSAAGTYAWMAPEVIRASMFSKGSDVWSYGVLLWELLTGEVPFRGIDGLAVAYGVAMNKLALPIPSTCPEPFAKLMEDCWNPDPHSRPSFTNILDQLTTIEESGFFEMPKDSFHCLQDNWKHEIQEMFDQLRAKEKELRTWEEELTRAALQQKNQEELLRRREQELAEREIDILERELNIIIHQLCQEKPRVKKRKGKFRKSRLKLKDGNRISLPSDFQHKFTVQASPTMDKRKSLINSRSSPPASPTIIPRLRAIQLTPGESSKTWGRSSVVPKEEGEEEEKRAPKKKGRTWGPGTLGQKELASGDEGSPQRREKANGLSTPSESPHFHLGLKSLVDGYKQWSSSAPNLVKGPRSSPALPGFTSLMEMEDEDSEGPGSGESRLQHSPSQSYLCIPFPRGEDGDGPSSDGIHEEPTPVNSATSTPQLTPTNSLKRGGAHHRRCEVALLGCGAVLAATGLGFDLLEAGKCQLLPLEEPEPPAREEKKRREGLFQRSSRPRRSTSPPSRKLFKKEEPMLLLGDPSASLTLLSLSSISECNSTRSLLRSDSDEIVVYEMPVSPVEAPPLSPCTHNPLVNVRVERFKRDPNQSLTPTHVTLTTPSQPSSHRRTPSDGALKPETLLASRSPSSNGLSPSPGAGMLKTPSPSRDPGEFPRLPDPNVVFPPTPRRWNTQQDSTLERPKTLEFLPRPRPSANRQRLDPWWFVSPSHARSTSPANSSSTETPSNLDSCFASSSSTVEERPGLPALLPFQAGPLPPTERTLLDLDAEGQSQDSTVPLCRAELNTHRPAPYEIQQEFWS

[6] = Clearance in mouse plasma at 2.3 umol/kg, iv formulated as solution; type: ADME, organism-based; details: dose 2.3 µmol/kg
[7] = target: Dual specificity tyrosine-phosphorylation-regulated kinase 2 (Homo sapiens, UniProt Q92630); assay: Inhibition of DYRK2 (unknown origin) in presence of 5 mM ATP
[8] = target: Mitogen-activated protein kinase 8 (Homo sapiens, UniProt P45983); assay: Inhibition of human recombinant full-length JNK1 using ATF2 as substrate at1 uM incubated for 40 mins in presence of [gamma32P]-ATP by scintillation counting method relative to control; details: dose 1.0 µM
Mitogen-activated protein kinase 8, sequence (P45983 whole entry): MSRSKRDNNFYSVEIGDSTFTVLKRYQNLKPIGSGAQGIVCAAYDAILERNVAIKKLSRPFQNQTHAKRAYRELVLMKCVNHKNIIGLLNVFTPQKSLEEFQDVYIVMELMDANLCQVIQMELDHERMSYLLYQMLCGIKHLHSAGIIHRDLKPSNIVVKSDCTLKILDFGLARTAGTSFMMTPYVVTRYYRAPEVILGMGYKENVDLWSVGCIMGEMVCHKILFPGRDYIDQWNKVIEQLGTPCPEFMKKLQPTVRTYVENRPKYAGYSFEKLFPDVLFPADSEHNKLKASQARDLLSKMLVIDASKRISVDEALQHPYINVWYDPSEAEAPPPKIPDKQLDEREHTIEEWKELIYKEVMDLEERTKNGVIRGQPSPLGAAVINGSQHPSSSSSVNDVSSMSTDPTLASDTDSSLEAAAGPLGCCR

[9] = Volume of distribution at steady state in Beagle dog at 0.23 umol/kg, iv administered over 0.25 hrs formulated as solution in 10% DMSO/90% water; type: ADME, organism-based, Canis lupus familiaris; details: in vivo, dose 0.23 µmol/kg, read-out: Vdss
[10] = target: T1, Dual specificity tyrosine-phosphorylation-regulated kinase 2 (Homo sapiens) (UniProt Q92630); assay: Inhibition of human recombinant full length N-terminal GST-tagged DYRK2 expressed in Escherichia coli at 0.1 uM incubated for 60 mins by TR-FRET based LanthaScreen Eu kinase binding assay relative to control
T1 sequence (whole entry): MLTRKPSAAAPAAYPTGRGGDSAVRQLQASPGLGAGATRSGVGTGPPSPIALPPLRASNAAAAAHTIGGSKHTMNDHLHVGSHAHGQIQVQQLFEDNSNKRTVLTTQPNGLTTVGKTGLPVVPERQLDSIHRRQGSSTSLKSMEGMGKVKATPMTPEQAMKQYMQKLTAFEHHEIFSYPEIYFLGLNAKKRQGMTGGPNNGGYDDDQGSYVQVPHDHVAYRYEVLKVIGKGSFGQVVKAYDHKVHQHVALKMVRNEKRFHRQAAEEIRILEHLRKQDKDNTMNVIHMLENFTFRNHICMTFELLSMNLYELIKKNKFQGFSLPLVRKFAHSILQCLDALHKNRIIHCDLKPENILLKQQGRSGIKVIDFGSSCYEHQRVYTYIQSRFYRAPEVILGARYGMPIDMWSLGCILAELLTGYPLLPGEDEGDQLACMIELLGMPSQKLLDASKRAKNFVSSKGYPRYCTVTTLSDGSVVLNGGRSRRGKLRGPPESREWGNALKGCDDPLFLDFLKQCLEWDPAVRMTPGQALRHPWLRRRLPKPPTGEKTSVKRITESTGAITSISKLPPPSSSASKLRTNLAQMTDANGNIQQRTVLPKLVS

[11] = tested on: NOMO-1; assay: Antitumor activity against human NOMO1 cells xenografted in CB17 SCID mouse assessed as tumor regression at 15 mg/kg, ip BID administered at 2 hrs dosing interval with 2 days on and 5 days off dosing schedule measured 12 days post initial dose; type: functional; details: time 12 day
[12] = Clearance in cynomolgus monkey plasma at 0.46 umol/kg, iv administered over 0.25 hrs formulated as solution in DMA/PEG400/Tween80; type: ADME, organism-based, Macaca fascicularis; details: dose 0.46 µmol/kg
[13] = Drug metabolism in human hepatocytes assessed as 3-(4-(2-((1S,3R)-3-acetamidocyclohexanecarboxamido)-5-fluoropyridin-4-yl)-1H-pyrazol-5-yl)-2,2-dimethylpropanoic acid metabolite formation; type: ADME, cell-based, Hepatocyte
[14] = species on record: Homo sapiens; assay: Selectivity ratio of IC50 for CDK4 (unknown origin) in presence of 5 mM ATP to IC50 for Inhibition of recombinant full length human N-terminal GST-fused CDK9 (1 to 372 residues)/His-tagged CyclinT1 (1 to 726 residues) expressed in baculovirus infected insect cells
[15] = target: Cyclin-dependent kinase 9 (Homo sapiens, UniProt P50750); assay: Inhibition of CDK9 in human MV4-11 cells assessed as induction of caspase-3/7 activation measured after 6 hrs followed by Caspase-glo reagent based assay; type: cell-based
Cyclin-dependent kinase 9, sequence (P50750 whole entry): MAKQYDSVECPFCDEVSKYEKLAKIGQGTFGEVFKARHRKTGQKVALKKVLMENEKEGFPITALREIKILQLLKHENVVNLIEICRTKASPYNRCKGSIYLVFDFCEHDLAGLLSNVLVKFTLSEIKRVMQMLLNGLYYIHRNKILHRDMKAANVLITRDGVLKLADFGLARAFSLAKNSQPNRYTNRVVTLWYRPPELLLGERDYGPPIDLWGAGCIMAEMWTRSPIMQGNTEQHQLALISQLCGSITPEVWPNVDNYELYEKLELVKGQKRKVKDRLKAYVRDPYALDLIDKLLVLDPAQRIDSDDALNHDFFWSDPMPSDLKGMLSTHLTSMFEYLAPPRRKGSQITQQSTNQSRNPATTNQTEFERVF

[16] = Drug metabolism in human liver microsomes assessed as 3-(4-(2-((1S,3R)-3-acetamidocyclohexanecarboxamido)-5-fluoropyridin-4-yl)-1H-pyrazol-5-yl)-2,2-dimethylpropanoic acid formation at 10 uM measured after 1 hr in presence of NADPH by LC-UV-MS analysis; type: ADME, Microsome
[17] = Drug metabolism in human liver microsomes assessed as (1S,3R)-3-acetamido-N-(5-fluoro-4-(6-hydroxy-5,5-dimethyl-5,6-dihydro-4H-pyrrolo[1,2-b]pyrazol-3-yl)pyridin-2-yl)cyclohexanecarboxamide formation at 10 uM measured after 1 hr in presence of NADPH by LC-UV-MS analysis; type: ADME, Microsome
[18] = species on record: Homo sapiens; assay: Selectivity ratio of IC50 for human recombinant N-terminal GST-TEV tagged CDK12 (696 to 1082 residues)/full length human CyclinK expressed in baculovirus expression system to IC50 for Inhibition of recombinant full length human N-terminal GST-fused CDK9 (1 to 372 residues)/His-tagged CyclinT1 (1 to 726 residues) expressed in baculovirus infected insect cells
[19] = Clearance in Beagle dog plasma at 5.2 umol/kg, iv administered over 0.25 hrs formulated as solution in 5% DMSO; type: ADME, organism-based, Canis lupus familiaris; details: dose 5.2 µmol/kg
[20] = Drug metabolism in human liver microsome assessed as (1S,3R)-3-acetamido-N-(5-chloro-4-(7-hydroxy-4,5,6,7-tetrahydropyrazolo[1,5-a]pyridin-3-yl)pyridin-2-yl)cyclohexanecarboxamide formation at 10 uM measured after 1 hr in presence of NADPH by LC-UV-MS analysis; type: ADME; details: microsomes

SMILES: CC(=O)N[C@@H]1CCC[C@H](C(=O)Nc2cc(-c3cnn4c3CC(C)(C)C4)c(Cl)cn2)C1 [ZEMIRCICLIB]
- inhibition [1]: 96%
- inhibition [2]: 80%
- Activity [3]: Dose-dependent effect
- Vd [4]: 1.3 L/kg
- inhibition [5]: 82%
- clearance [6]: 55 mL/min/kg
- IC50 [7]: 8.62 µM
- inhibition [8]: 90%
- Vd [9]: 0.67 L/kg
- inhibition [10]: 85%
- Activity [11]: 65%
- clearance [12]: 19 mL/min/kg

SMILES: CC(=O)N[C@@H]1CCC[C@H](C(=O)Nc2cc(-c3cnn4c3CC(C)(C)C4)c(F)cn2)C1
- Drug metabolism [13]: Metabolite_Detected
- Ratio IC50 [14]: 16
- EC50 [15]: 0.029 µM
- Drug metabolism [16]: Metabolite_Detected
- Drug metabolism [17]: Metabolite_Detected
- Ratio IC50 [18]: 16

SMILES: CC(=O)N[C@@H]1CCC[C@H](C(=O)Nc2cc(-c3cnn4c3CCCC4)c(Cl)cn2)C1
- clearance [19]: 30 mL/min/kg
- Drug metabolism [20]: Metabolite_Detected
